# Ends that are not written are not given here.
# Test system: T2-B * 3501 cells
sequence,measurement,value
TPPLVKLWY [HIV(B35)-16],induction of CTL with specific cytotoxic activity,effective for inducing CTLs capable of damaging the synthetic peptide-binding T2-B * 3501 cells
